The text below walks through data of US6720346B2, “Thiazole benzamide derivatives and pharmaceutical compositions for inhibiting cell proliferation” (Agouron Pharmaceuticals, Inc., priority 2001, dated 2004).

Assay [1] deals with HCT-116 cell line. In words: Inhibition of cell growth, MTT tetrazolium salt assay. The format is cell-based. The note with it: for HCT-116 % Inhibition at 0.1 μM: HCT-116, at 0.1 μM; for HCT-116 % Inhibition at 0.25 μM: HCT-116, at 0.25 μM. Summed up: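 Cells in McCoy's 5A medium were given 4 h before compound addition in 0.5% (v/v) DMSO, then incubated 3–5 days at 37 °C, 5% CO2. After 4 h with 0.2 mg/mL MTT, DMSO-solubilized formazan was read at 540 nm; 50% and 90% growth-inhibitory concentrations came from semi-log plots against vehicle controls.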

The target in assay [2] is T1, human CDK4/cyclin D3 (Homo sapiens, UniProt P11802).
T1 construct: made in house; host or cells: insect cells co-infected with baculovirus vectors
T1 sequence (P11802 whole entry): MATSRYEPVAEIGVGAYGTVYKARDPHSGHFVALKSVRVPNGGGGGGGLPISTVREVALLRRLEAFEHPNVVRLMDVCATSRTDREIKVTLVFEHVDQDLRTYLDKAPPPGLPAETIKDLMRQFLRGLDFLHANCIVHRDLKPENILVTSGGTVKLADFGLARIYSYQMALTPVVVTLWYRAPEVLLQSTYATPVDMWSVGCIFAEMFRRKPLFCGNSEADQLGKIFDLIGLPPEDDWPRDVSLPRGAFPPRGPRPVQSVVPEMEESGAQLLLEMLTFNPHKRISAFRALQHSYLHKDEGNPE
T1 sequence (P30281 1-264 partner limits assumed): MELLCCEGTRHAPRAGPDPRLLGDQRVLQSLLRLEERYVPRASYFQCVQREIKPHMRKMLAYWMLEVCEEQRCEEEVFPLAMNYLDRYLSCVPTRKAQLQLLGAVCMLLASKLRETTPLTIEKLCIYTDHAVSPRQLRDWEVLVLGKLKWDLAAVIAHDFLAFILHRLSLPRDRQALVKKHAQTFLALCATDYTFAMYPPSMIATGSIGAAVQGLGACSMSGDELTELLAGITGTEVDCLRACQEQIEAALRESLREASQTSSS
In words: Inhibition of CDK4/cyclin D retinoblastoma kinase activity (Ki; % inhibition). The note with it: at 0.03 μM. The format is biochemical. In a few lines: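 Insect-cell-expressed CDK4 with truncated cyclin D3 (1-264), 5 nM, phosphorylating His-tagged Rb fragment (386-928) with 25 μM [32/33P]ATP at pH 7.4, 30 °C, 20 min (60 min for tight binders). Filter capture, phosphorimager read; % inhibition at 30 nM compound, Ki from competitive or tight-binding fits.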

The target of assay [3] is T2, CDK2/cyclin A (Homo sapiens, UniProt P24941).
T2 construct: made in house; host or cells: CDK2: insect cells (baculovirus); cyclin A: E. coli
In words: Inhibition of CDK2/cyclin A retinoblastoma kinase activity (Ki; % inhibition). It counts as biochemical. The note with it: at 0.03 μM. Summed up: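 Radiometric filter assay of CDK2/proteolyzed cyclin A (baculovirus-expressed human CDK2, 10 or 19 nM) phosphorylating an Rb fragment with 25 μM [³²P/³³P]ATP in pH 7.4 HEPES, 2% DMSO, at 30 °C for 60 or 75 min under initial-rate conditions. Library compounds screened at 30 nM for % inhibition; apparent Ki from concentration series fit to competitive or tight-binding inhibition equations.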

With `CCN1CCCC1CNC(=O)c1ccc(Nc2nc(N)c(C(=O)c3c(F)cccc3F)s2)cc1` (centres unmarked) [Example G154], in assay [1], the “HCT-116 % Inhibition at 0.1 μM” value came to 17% and the “HCT-116 % Inhibition at 0.25 μM” value was found to be 91%. In addition, the “CDK4 % Inhibition at 0.03 μM” value in assay [2] is recorded as 34%. For the same compound, the “CDK2 % Inhibition at 0.03 μM” value in assay [3] is on record as 10%.
Regarding `Nc1nc(Nc2ccc(C(=O)NC(CO)c3ccccc3)cc2)sc1C(=O)c1c(F)cccc1F` (centres unmarked) [Example G155], the “HCT-116 % Inhibition at 0.1 μM” value in assay [1] is recorded as 0%. Also, in assay [1] (0.25 µM), the “HCT-116 % Inhibition at 0.25 μM” value worked out at 67%. Moreover, in assay [2], the “CDK4 % Inhibition at 0.03 μM” value came to 38%. Further, the “CDK2 % Inhibition at 0.03 μM” value in assay [3] was 32%.
As to `CCC(CO)NC(=O)c1ccc(Nc2nc(N)c(C(=O)c3c(F)cccc3F)s2)cc1` (centres unmarked) [Example G156], in assay [1] (0.1 µM), the “HCT-116 % Inhibition at 0.1 μM” value was found to be 0%. The “HCT-116 % Inhibition at 0.25 μM” value in assay [1] (0.25 µM) was found to be 61%. The “CDK4 % Inhibition at 0.03 μM” value in assay [2] worked out at 24%. Further, the “CDK2 % Inhibition at 0.03 μM” value in assay [3] is listed as 24%.
With `CCN(CC)CCNC(=O)c1ccc(Nc2nc(N)c(C(=O)c3c(F)cccc3F)s2)cc1` [Example G157], in assay [1], the “HCT-116 % Inhibition at 0.1 μM” value is on record as 0% and the “HCT-116 % Inhibition at 0.25 μM” value is given as 87%. Also, the “CDK4 % Inhibition at 0.03 μM” value in assay [2] stood at 30%. Further, the “CDK2 % Inhibition at 0.03 μM” value in assay [3] is on record as 18%.
Regarding `Nc1nc(Nc2ccc(C(=O)NCCCN3CCCC3)cc2)sc1C(=O)c1c(F)cccc1F` [Example G158], in assay [1], the “HCT-116 % Inhibition at 0.1 μM” value came to 0% and the “HCT-116 % Inhibition at 0.25 μM” value stood at 73%. Besides, the “CDK4 % Inhibition at 0.03 μM” value in assay [2] is recorded as 40%. In assay [3], the “CDK2 % Inhibition at 0.03 μM” value is reported as 22%.
For `CCC(COC)NC(=O)c1ccc(Nc2nc(N)c(C(=O)c3c(F)cccc3F)s2)cc1` (centres unmarked) [Example G159], in assay [1], the “HCT-116 % Inhibition at 0.1 μM” value is recorded as 0% and the “HCT-116 % Inhibition at 0.25 μM” value stood at 74%. For the same compound, in assay [2], the “CDK4 % Inhibition at 0.03 μM” value amounted to 5%. In addition, in assay [3], the “CDK2 % Inhibition at 0.03 μM” value came to 6%.
Regarding `Nc1nc(Nc2ccc(C(=O)NC(CO)c3ccccc3)cc2)sc1C(=O)c1c(F)cccc1F` (centres unmarked) [Example G160], in assay [1], the “HCT-116 % Inhibition at 0.1 μM” value stood at 0%. In addition, the “HCT-116 % Inhibition at 0.25 μM” value in assay [1] (0.25 µM) is recorded as 87%. The “CDK4 % Inhibition at 0.03 μM” value in assay [2] stood at 6%. The “CDK2 % Inhibition at 0.03 μM” value in assay [3] is on record as 24%.
Consider `CNC(=O)c1ccccc1NC(=O)c1ccc(Nc2nc(N)c(C(=O)c3c(F)cccc3F)s2)cc1` [Example G161], for which, in assay [1], the “HCT-116 % Inhibition at 0.1 μM” value is recorded as 0% and the “HCT-116 % Inhibition at 0.25 μM” value came out at 57%. Also, in assay [2], the “CDK4 % Inhibition at 0.03 μM” value amounted to 7%. In addition, the “CDK2 % Inhibition at 0.03 μM” value in assay [3] amounted to 13%.
Turning to `CC(NC(=O)c1ccc(Nc2nc(N)c(C(=O)c3c(F)cccc3F)s2)cc1)c1ccccc1` (centres unmarked) [Example G162], in assay [1], the “HCT-116 % Inhibition at 0.1 μM” value came out at 3% and the “HCT-116 % Inhibition at 0.25 μM” value is 84%. Moreover, the “CDK4 % Inhibition at 0.03 μM” value in assay [2] stood at 20%. Besides, the “CDK2 % Inhibition at 0.03 μM” value in assay [3] is listed as 25%.
For the compound `CCCC(C)NC(=O)c1ccc(Nc2nc(N)c(C(=O)c3c(F)cccc3F)s2)cc1` (centres unmarked) [Example G163], in assay [1], the “HCT-116 % Inhibition at 0.1 μM” value amounted to 0% and the “HCT-116 % Inhibition at 0.25 μM” value is recorded as 67%. The “CDK4 % Inhibition at 0.03 μM” value in assay [2] came to 21%. Further, in assay [3], the “CDK2 % Inhibition at 0.03 μM” value turned out to be 16%.
With `COCCNC(=O)c1ccc(Nc2nc(N)c(C(=O)c3c(F)cccc3F)s2)cc1` [Example G164], in assay [1], the “HCT-116 % Inhibition at 0.1 μM” value is recorded as 0% and the “HCT-116 % Inhibition at 0.25 μM” value was 59%. In addition, in assay [2], the “CDK4 % Inhibition at 0.03 μM” value is 19%. Also, in assay [3], the “CDK2 % Inhibition at 0.03 μM” value amounted to 13%.
On to `CCCOCCNC(=O)c1ccc(Nc2nc(N)c(C(=O)c3c(F)cccc3F)s2)cc1` [Example G165], for which, in assay [1], the “HCT-116 % Inhibition at 0.1 μM” value amounted to 0% and the “HCT-116 % Inhibition at 0.25 μM” value was 61%. Also, the “CDK4 % Inhibition at 0.03 μM” value in assay [2] is on record as 22%. For the same compound, in assay [3], the “CDK2 % Inhibition at 0.03 μM” value is 1%.
For `C[C@@H](NC(=O)c1ccc(Nc2nc(N)c(C(=O)c3c(F)cccc3F)s2)cc1)c1ccccc1` [Example G166], in assay [1], the “HCT-116 % Inhibition at 0.1 μM” value is on record as 8% and the “HCT-116 % Inhibition at 0.25 μM” value is reported as 90%. Besides, in assay [2], the “CDK4 % Inhibition at 0.03 μM” value is given as 4%. Also, the “CDK2 % Inhibition at 0.03 μM” value in assay [3] was 22%.
In the case of `C[C@H](NC(=O)c1ccc(Nc2nc(N)c(C(=O)c3c(F)cccc3F)s2)cc1)c1ccccc1` [Example G167], in assay [1], the “HCT-116 % Inhibition at 0.1 μM” value is given as 26% and the “HCT-116 % Inhibition at 0.25 μM” value was determined as 53%. In addition, the “CDK4 % Inhibition at 0.03 μM” value in assay [2] was 29%. Moreover, the “CDK2 % Inhibition at 0.03 μM” value in assay [3] came out at 19%.
Take `CC(C)OCCNC(=O)c1ccc(Nc2nc(N)c(C(=O)c3c(F)cccc3F)s2)cc1` [Example G168]: in assay [1], the “HCT-116 % Inhibition at 0.1 μM” value is 25% and the “HCT-116 % Inhibition at 0.25 μM” value is recorded as 52%. Moreover, the “CDK4 % Inhibition at 0.03 μM” value in assay [2] came to 17%. Besides, the “CDK2 % Inhibition at 0.03 μM” value in assay [3] came to 4%.
For the compound `COc1ccc(CNC(=O)c2ccc(Nc3nc(N)c(C(=O)c4c(F)cccc4F)s3)cc2)cc1` [Example G169], in assay [1], the “HCT-116 % Inhibition at 0.1 μM” value is recorded as 32% and the “HCT-116 % Inhibition at 0.25 μM” value is reported as 71%. The “CDK4 % Inhibition at 0.03 μM” value in assay [2] was determined as 49%. Also, the “CDK2 % Inhibition at 0.03 μM” value in assay [3] stood at 38%.
Taken in the same sequence, the figures for `COc1ccccc1CNC(=O)c1ccc(Nc2nc(N)c(C(=O)c3c(F)cccc3F)s2)cc1` [Example G170] were 44%, 78%, 32% and 26%.
Turning to `C#CCCN(CCCC)C(=O)c1ccc(Nc2nc(N)c(C(=O)c3c(F)cccc3F)s2)cc1` [Example G171], in assay [1], the “HCT-116 % Inhibition at 0.1 μM” value was found to be 30% and the “HCT-116 % Inhibition at 0.25 μM” value came out at 47%. Further, the “CDK4 % Inhibition at 0.03 μM” value in assay [2] worked out at 16%. Further, the “CDK2 % Inhibition at 0.03 μM” value in assay [3] was found to be 4%.
With `Nc1nc(Nc2ccc(C(=O)NCc3ccc4c(c3)OCO4)cc2)sc1C(=O)c1c(F)cccc1F` [Example G172], in assay [1], the “HCT-116 % Inhibition at 0.1 μM” value is 37% and the “HCT-116 % Inhibition at 0.25 μM” value is 61%. In addition, the “CDK4 % Inhibition at 0.03 μM” value in assay [2] came to 54%. Besides, in assay [3], the “CDK2 % Inhibition at 0.03 μM” value was determined as 36%.
As for `Nc1nc(Nc2ccc(C(=O)NCC3CCCCC3)cc2)sc1C(=O)c1c(F)cccc1F` [Example G173], in assay [1], the “HCT-116 % Inhibition at 0.1 μM” value is reported as 18% and the “HCT-116 % Inhibition at 0.25 μM” value stood at 54%. Moreover, the “CDK4 % Inhibition at 0.03 μM” value in assay [2] was found to be 21%. In addition, in assay [3], the “CDK2 % Inhibition at 0.03 μM” value came to 14%.
On to `CN(CC(O)CO)C(=O)c1ccc(Nc2nc(N)c(C(=O)c3c(F)cccc3F)s2)cc1` (centres unmarked) [Example G174], for which, in assay [1], the “HCT-116 % Inhibition at 0.1 μM” value came to 28% and the “HCT-116 % Inhibition at 0.25 μM” value is reported as 56%. For the same compound, the “CDK4 % Inhibition at 0.03 μM” value in assay [2] stood at 15%. Besides, the “CDK2 % Inhibition at 0.03 μM” value in assay [3] stood at 0%.
With `CC(CO)NC(=O)c1ccc(Nc2nc(N)c(C(=O)c3c(F)cccc3F)s2)cc1` (centres unmarked) [Example G175], the “HCT-116 % Inhibition at 0.1 μM” value in assay [1] (0.1 µM) turned out to be 11%. In addition, the “HCT-116 % Inhibition at 0.25 μM” value in assay [1] (0.25 µM) came out at 47%. In addition, the “CDK4 % Inhibition at 0.03 μM” value in assay [2] was found to be 31%. In addition, in assay [3], the “CDK2 % Inhibition at 0.03 μM” value amounted to 15%.
With `Nc1nc(Nc2ccc(C(=O)N[C@@H]3CCc4ccccc43)cc2)sc1C(=O)c1c(F)cccc1F` [Example G176], in assay [1], the “HCT-116 % Inhibition at 0.1 μM” value stood at 32% and the “HCT-116 % Inhibition at 0.25 μM” value came out at 62%. Further, the “CDK4 % Inhibition at 0.03 μM” value in assay [2] was 21%. In assay [3], the “CDK2 % Inhibition at 0.03 μM” value was 22%.
